From ChEMBL document CHEMBL4507278 (2021)

Key:
[1] = biological target: Ribosomal protein S6 kinase alpha-2 (Homo sapiens) (UniProt Q15349); conditions: Compound concentration 1000.0 nM
[2] = system: Receptor-type tyrosine-protein kinase FLT3 (Homo sapiens), P36888 [UNDEFINED MUTATION]; conditions: Compound concentration 1000.0 nM
[3] = biological target: Interferon-induced, double-stranded RNA-activated protein kinase (Homo sapiens) (UniProt P19525); conditions: Compound concentration 1000.0 nM
[4] = biological target: Transient receptor potential cation channel subfamily M member 6 (Homo sapiens) (UniProt Q9BX84); conditions: Compound concentration 1000.0 nM
[5] = biological target: Serine/threonine-protein kinase DCLK3 (Homo sapiens) (UniProt Q9C098); conditions: Compound concentration 1000.0 nM
[6] = biological target: Citron Rho-interacting kinase (Homo sapiens) (UniProt O14578); conditions: Compound concentration 1000.0 nM
[7] = biological target: Serine/threonine-protein kinase PLK2 (Homo sapiens) (UniProt Q9NYY3); conditions: Compound concentration 1000.0 nM
[8] = biological target: Phosphatidylinositol 4-phosphate 5-kinase type-1 gamma (Homo sapiens) (UniProt O60331); conditions: Compound concentration 1000.0 nM
[9] = biological target: Delta-type opioid receptor (Homo sapiens) (UniProt P41143); conditions: Compound concentration 10.0 uM
[10] = biological target: Ribosomal protein S6 kinase alpha-5 (Homo sapiens) (UniProt O75582); conditions: Compound concentration 1000.0 nM
[11] = biological target: Mitogen-activated protein kinase 7 (Homo sapiens) (UniProt Q13164); conditions: Compound concentration 1000.0 nM
[12] = system: Tyrosine-protein kinase ABL1 (Homo sapiens), P00519 [T315I]; conditions: Compound concentration 1000.0 nM
[13] = biological target: Serine/threonine-protein kinase TAO1 (Homo sapiens) (UniProt Q7L7X3); conditions: Compound concentration 1000.0 nM
Serine/threonine-protein kinase TAO1 (Homo sapiens), sequence (Q7L7X3 whole entry, canonical isoform): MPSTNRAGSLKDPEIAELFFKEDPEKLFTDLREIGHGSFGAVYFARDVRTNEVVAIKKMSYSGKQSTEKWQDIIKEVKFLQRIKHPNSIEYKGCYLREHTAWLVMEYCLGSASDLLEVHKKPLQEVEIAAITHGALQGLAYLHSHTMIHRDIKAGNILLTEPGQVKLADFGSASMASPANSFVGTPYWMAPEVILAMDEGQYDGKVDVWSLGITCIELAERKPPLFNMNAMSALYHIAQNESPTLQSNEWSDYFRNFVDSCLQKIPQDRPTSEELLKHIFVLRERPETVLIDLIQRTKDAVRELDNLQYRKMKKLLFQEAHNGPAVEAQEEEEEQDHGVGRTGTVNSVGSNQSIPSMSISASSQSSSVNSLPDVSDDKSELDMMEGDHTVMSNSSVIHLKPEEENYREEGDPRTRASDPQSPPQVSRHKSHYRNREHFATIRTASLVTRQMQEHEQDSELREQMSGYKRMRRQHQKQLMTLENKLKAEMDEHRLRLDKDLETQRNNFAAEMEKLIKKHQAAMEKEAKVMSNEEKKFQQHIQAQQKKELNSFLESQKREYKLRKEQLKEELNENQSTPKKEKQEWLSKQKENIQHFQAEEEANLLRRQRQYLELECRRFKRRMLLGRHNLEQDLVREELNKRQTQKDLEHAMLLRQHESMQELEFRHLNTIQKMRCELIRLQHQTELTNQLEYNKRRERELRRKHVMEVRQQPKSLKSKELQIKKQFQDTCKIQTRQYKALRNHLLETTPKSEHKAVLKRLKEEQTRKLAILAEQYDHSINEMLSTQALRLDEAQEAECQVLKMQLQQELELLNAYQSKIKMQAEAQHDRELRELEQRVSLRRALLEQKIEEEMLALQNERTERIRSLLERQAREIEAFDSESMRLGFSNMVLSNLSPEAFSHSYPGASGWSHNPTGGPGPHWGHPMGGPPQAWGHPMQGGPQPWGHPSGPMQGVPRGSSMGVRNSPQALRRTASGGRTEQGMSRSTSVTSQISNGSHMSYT

[14] = biological target: Phosphorylase b kinase gamma catalytic chain, skeletal muscle/heart isoform (Homo sapiens) (UniProt Q16816); conditions: Compound concentration 1000.0 nM
Phosphorylase b kinase gamma catalytic chain, skeletal muscle/heart isoform (Homo sapiens), sequence (Q16816 whole entry, looked up, canonical isoform): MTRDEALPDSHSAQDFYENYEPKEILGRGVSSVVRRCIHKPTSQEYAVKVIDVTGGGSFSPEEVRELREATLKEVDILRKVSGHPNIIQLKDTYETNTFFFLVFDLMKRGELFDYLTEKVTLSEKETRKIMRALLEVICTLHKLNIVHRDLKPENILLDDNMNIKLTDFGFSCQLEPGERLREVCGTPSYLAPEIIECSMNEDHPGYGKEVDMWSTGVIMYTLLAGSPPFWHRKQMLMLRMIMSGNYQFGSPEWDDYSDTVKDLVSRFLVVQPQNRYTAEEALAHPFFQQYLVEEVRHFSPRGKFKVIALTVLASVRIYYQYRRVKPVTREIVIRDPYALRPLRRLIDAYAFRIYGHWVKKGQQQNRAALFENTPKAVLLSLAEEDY

[15] = biological target: Mitogen-activated protein kinase kinase kinase kinase 5 (Homo sapiens) (UniProt Q9Y4K4); conditions: Compound concentration 1000.0 nM
[16] = biological target: Mitogen-activated protein kinase kinase kinase 4 (Homo sapiens) (UniProt Q9Y6R4); conditions: Compound concentration 1000.0 nM
[17] = biological target: Fibroblast growth factor receptor 4 (Homo sapiens) (UniProt P22455); conditions: Compound concentration 1000.0 nM
[18] = biological target: Phosphatidylinositol 4,5-bisphosphate 3-kinase catalytic subunit delta isoform (Homo sapiens) (UniProt O00329); conditions: Compound concentration 1000.0 nM
[19] = biological target: Serine/threonine-protein kinase WNK3 (Homo sapiens) (UniProt Q9BYP7); conditions: Compound concentration 1000.0 nM
[20] = biological target: Dual specificity mitogen-activated protein kinase kinase 2 (Homo sapiens) (UniProt P36507); conditions: Compound concentration 1000.0 nM
[21] = biological target: Dual specificity mitogen-activated protein kinase kinase 3 (Homo sapiens) (UniProt P46734); conditions: Compound concentration 1000.0 nM
[22] = system: Phosphatidylinositol 4,5-bisphosphate 3-kinase catalytic subunit alpha isoform (Homo sapiens), P42336 [M1043I]; conditions: Compound concentration 1000.0 nM
Phosphatidylinositol 4,5-bisphosphate 3-kinase catalytic subunit alpha isoform (Homo sapiens), P42336 [M1043I], sequence (P42336 whole entry M1043I, canonical isoform): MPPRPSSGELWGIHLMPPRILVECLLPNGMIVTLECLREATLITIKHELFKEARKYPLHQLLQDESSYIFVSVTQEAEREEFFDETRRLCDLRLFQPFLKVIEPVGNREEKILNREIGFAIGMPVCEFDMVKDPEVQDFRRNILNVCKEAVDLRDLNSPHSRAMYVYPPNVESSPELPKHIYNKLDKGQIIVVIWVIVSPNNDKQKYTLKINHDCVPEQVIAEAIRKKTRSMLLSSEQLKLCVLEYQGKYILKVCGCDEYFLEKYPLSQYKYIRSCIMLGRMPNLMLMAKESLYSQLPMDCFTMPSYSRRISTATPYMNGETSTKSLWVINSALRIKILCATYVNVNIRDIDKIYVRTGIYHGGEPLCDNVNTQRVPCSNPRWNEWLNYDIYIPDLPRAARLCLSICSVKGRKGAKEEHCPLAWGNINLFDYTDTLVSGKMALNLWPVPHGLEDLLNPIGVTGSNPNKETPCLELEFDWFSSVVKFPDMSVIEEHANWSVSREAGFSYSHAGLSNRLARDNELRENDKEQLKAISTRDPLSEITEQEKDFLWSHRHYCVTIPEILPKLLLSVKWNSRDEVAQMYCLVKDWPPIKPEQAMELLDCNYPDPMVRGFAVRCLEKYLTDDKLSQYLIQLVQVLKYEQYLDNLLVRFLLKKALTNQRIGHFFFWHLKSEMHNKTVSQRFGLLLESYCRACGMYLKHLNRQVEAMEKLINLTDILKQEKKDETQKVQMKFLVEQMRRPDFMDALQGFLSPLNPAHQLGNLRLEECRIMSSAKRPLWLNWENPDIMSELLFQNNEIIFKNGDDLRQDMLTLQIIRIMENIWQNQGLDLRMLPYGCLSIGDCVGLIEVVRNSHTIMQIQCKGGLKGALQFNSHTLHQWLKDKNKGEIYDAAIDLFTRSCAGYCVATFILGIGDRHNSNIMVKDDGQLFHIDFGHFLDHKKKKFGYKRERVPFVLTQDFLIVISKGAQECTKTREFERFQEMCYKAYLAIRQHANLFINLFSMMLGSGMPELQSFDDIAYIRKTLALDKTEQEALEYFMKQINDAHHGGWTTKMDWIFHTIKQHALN

[23] = system: Epidermal growth factor receptor (Homo sapiens), P00533 [G719S]; conditions: Compound concentration 1000.0 nM
[24] = biological target: Casein kinase II subunit alpha (Homo sapiens) (UniProt P68400); conditions: Compound concentration 1000.0 nM
[25] = biological target: Ephrin type-B receptor 1 (Homo sapiens) (UniProt P54762); conditions: Compound concentration 1000.0 nM
Ephrin type-B receptor 1 (Homo sapiens), sequence (P54762 whole entry): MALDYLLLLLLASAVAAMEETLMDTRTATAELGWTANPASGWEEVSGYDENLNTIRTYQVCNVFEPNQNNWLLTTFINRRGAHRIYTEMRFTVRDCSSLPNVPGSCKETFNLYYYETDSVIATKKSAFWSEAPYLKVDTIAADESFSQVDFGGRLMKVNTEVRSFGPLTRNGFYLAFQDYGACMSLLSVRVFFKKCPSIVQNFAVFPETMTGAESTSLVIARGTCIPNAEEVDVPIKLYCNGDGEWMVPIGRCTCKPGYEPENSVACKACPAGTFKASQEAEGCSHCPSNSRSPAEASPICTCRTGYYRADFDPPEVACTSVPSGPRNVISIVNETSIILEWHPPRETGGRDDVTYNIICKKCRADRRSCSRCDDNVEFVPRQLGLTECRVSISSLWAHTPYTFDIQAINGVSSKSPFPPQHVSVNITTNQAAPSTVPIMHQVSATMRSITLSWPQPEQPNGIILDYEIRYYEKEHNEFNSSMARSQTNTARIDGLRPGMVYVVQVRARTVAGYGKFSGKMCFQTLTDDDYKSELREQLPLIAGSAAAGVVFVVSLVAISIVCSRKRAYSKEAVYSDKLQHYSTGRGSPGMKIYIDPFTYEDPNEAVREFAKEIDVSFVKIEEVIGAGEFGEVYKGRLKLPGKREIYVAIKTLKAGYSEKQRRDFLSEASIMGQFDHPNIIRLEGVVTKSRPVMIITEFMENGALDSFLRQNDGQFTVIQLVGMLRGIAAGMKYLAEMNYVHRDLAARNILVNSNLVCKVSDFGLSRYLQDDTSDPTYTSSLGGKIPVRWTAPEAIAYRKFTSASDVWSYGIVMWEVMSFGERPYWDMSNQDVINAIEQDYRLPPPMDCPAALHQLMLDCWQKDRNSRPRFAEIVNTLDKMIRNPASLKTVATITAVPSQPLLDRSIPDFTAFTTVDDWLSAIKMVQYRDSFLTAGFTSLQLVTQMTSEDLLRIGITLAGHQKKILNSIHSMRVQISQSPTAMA

[26] = biological target: Serine/threonine-protein kinase VRK2 (Homo sapiens) (UniProt Q86Y07); conditions: Compound concentration 1000.0 nM
Serine/threonine-protein kinase VRK2 (Homo sapiens), sequence (Q86Y07 whole entry): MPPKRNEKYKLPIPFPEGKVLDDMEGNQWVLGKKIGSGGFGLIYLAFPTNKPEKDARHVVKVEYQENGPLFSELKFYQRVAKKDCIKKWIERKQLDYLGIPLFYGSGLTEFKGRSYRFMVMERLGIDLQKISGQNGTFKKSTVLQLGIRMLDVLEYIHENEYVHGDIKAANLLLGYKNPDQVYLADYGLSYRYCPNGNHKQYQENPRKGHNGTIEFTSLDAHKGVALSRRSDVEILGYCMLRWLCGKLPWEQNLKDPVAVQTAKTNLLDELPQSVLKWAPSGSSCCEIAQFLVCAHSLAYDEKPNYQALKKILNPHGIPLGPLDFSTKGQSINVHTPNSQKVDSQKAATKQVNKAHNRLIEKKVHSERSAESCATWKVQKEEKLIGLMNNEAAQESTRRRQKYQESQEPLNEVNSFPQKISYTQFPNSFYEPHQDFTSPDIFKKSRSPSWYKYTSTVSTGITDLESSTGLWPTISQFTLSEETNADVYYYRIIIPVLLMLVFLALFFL

[27] = biological target: Proto-oncogene tyrosine-protein kinase ROS (Homo sapiens) (UniProt P08922); conditions: Compound concentration 1000.0 nM
[28] = biological target: Discoidin domain-containing receptor 2 (Homo sapiens) (UniProt Q16832); conditions: Compound concentration 1000.0 nM
[29] = biological target: AP2-associated protein kinase 1 (Homo sapiens) (UniProt Q2M2I8); conditions: Compound concentration 1000.0 nM
[30] = biological target: Interleukin-1 receptor-associated kinase 4 (Homo sapiens) (UniProt Q9NWZ3); conditions: Compound concentration 1000.0 nM
[31] = system: Hepatocyte growth factor receptor (Homo sapiens), P08581 [M1250T]; conditions: Compound concentration 1000.0 nM
[32] = system: Proto-oncogene tyrosine-protein kinase receptor Ret (Homo sapiens), P07949 [V804M]; conditions: Compound concentration 1000.0 nM
[33] = biological target: Rhodopsin kinase GRK1 (Homo sapiens) (UniProt Q15835); conditions: Compound concentration 1000.0 nM
[34] = biological target: Platelet-derived growth factor receptor beta (Homo sapiens) (UniProt P09619); conditions: Compound concentration 1000.0 nM
Platelet-derived growth factor receptor beta (Homo sapiens), sequence (P09619 whole entry): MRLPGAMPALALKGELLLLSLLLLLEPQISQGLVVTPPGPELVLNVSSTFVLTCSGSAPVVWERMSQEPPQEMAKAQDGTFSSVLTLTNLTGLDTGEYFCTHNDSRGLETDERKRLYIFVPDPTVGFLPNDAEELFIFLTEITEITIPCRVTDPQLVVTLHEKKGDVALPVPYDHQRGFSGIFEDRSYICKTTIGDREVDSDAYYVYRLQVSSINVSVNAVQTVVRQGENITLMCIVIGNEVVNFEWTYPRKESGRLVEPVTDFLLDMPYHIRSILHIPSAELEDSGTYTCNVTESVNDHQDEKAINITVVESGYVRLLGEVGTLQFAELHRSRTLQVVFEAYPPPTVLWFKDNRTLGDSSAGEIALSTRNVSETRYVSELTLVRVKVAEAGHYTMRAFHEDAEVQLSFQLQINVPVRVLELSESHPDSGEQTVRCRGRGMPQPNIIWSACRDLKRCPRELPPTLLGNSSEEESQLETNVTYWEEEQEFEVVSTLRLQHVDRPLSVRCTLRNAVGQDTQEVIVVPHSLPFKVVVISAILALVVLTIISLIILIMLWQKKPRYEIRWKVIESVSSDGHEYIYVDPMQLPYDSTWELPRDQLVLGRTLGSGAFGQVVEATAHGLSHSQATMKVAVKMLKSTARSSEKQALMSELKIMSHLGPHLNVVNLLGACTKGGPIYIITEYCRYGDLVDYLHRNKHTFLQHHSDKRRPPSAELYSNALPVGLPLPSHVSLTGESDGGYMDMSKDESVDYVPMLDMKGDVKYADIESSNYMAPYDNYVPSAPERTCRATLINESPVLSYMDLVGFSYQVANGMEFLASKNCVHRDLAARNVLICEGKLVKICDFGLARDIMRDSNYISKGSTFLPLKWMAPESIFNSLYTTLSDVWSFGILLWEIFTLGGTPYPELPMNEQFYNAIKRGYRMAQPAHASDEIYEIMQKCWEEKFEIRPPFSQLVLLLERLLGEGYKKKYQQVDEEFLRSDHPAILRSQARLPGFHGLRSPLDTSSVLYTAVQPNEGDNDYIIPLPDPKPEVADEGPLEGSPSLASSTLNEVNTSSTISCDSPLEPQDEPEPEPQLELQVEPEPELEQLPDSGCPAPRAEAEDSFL

[35] = biological target: Mitogen-activated protein kinase kinase kinase 11 (Homo sapiens) (UniProt Q16584); conditions: Compound concentration 1000.0 nM
[36] = biological target: Serine/threonine-protein kinase PLK4 (Homo sapiens) (UniProt O00444); conditions: Compound concentration 1000.0 nM
[37] = biological target: Proto-oncogene tyrosine-protein kinase Src (Homo sapiens) (UniProt P12931); conditions: Compound concentration 1000.0 nM
[38] = biological target: Myosin-IIIb (Homo sapiens) (UniProt Q8WXR4); conditions: Compound concentration 1000.0 nM
[39] = biological target: Serine/threonine-protein kinase RIO1 (Homo sapiens) (UniProt Q9BRS2); conditions: Compound concentration 1000.0 nM
[40] = biological target: Phosphatidylinositol 5-phosphate 4-kinase type-2 beta (Homo sapiens) (UniProt P78356); conditions: Compound concentration 1000.0 nM
[41] = biological target: Ephrin type-B receptor 3 (Homo sapiens) (UniProt P54753); conditions: Compound concentration 1000.0 nM
[42] = biological target: Serine/threonine-protein kinase Nek11 (Homo sapiens) (UniProt Q8NG66); conditions: Compound concentration 1000.0 nM
[43] = biological target: SNF-related serine/threonine-protein kinase (Homo sapiens) (UniProt Q9NRH2); conditions: Compound concentration 1000.0 nM
[44] = biological target: cAMP-dependent protein kinase catalytic subunit alpha (Homo sapiens) (UniProt P17612); conditions: Compound concentration 1000.0 nM

CS(=O)(=O)NCC[C@H](NC(=O)c1cncc2c1cnn2-c1ccc(F)cc1)c1ccnc(S(C)(=O)=O)c1 [BI 9307]
inactive: residual activity [1] 100% | residual activity [2] 99% | residual activity [3] 53% | residual activity [4] 100% | residual activity [5] 93% | residual activity [6] 73% | residual activity [7] 100% | residual activity [8] 78% | inhibition [9] -2.19% | residual activity [10] 88% | residual activity [11] 100% | residual activity [12] 93% | residual activity [13] 82% | residual activity [14] 75% | residual activity [15] 83% | residual activity [16] 84% | residual activity [17] 100% | residual activity [18] 100% | residual activity [19] 100% | residual activity [20] 100% | residual activity [21] 100% | residual activity [22] 95% | residual activity [23] 75% | residual activity [24] 100% | residual activity [25] 88% | residual activity [26] 100% | residual activity [27] 94% | residual activity [28] 100% | residual activity [29] 100% | residual activity [30] 100% | residual activity [31] 88% | residual activity [32] 96% | residual activity [33] 100% | residual activity [34] 100% | residual activity [35] 100% | residual activity [36] 89% | residual activity [37] 96% | residual activity [38] 100% | residual activity [39] 85% | residual activity [40] 100% | residual activity [41] 100% | residual activity [42] 100% | residual activity [43] 100% | residual activity [44] 100%

CS(=O)(=O)c1cc(C2(NC(=O)c3cncc4c3cnn4-c3ccc(F)cc3)CC2)ccn1 [BI 639667]
inactive: residual activity [1] 100% | residual activity [2] 58% | residual activity [3] 60% | residual activity [4] 91% | residual activity [5] 100% | residual activity [6] 100% | residual activity [7] 70% | residual activity [8] 95% | inhibition [9] -5.92% | residual activity [10] 100% | residual activity [11] 75% | residual activity [12] 75% | residual activity [13] 94% | residual activity [14] 78% | residual activity [15] 98% | residual activity [16] 87% | residual activity [17] 74% | residual activity [18] 100% | residual activity [19] 100% | residual activity [20] 80% | residual activity [21] 88% | residual activity [22] 93% | residual activity [23] 100% | residual activity [24] 64% | residual activity [25] 91% | residual activity [26] 100% | residual activity [27] 100% | residual activity [28] 100% | residual activity [29] 94% | residual activity [30] 100% | residual activity [31] 82% | residual activity [32] 97% | residual activity [33] 87% | residual activity [34] 93% | residual activity [35] 100% | residual activity [36] 85% | residual activity [37] 100% | residual activity [38] 100% | residual activity [39] 80% | residual activity [40] 100% | residual activity [41] 100% | residual activity [42] 100% | residual activity [43] 88% | residual activity [44] 100%
